Reference: patent publication US20200237773A1, “THERAPEUTIC COMBINATION OF A THIRD-GENERATION EGFR TYROSINE KINASE INHIBITOR AND A RAF INHIBITOR” (Novartis AG, priority 2017, published 2020)
Each block holds one compound with its values, some of them ahead of it.

How the values were obtained:
wild-type (WT) EGFR [1] = target: T1, wild-type (WT) EGFR (Homo sapiens, UniProt P00533); assay: Inhibition of wild-type EGFR by Compound A; settings: at clinically relevant efficacious concentrations
[2] = tested on: EGFR mutant (L858R, ex19del and T790M) cancer models; assay: EGFR mutant cancer models (in vitro and in vivo), Compound A
xenograft models = assay: Xenograft models, Compound A; format: in vivo
EGFR-mutant NSCLC = assay: Previous study of EGF816 at 100 mg and 150 mg daily; format: in vivo, human; settings: 100 mg daily compared with 150 mg daily
[3] = tested on: EGFR mutant NSCLC cell lines HCC4006, HCC827, PC9, MGH707; assay: Short-term viability assay (CellTiter-Glo, 5 days); format: cell-based
Method: FIG. 1A and FIG. 1B: Dose response curves in EGFR mutant NSCLC cell lines (FIG. 1A: HCC4006 and HCC827 cell lines. FIG. 1B: PC9 and MGH707 cell lines). for Compound B in the presence of DMSO (curves at the top of Figures) or 300nM EGF816 (“Cmpd A”-curves at the bottom of Figures). % Activity is a measure of cell number as read out by cell-titer glo. 0 represents the CTG value at Day 0 and 100 represents the value of untreated growth at day 5.
The potential efficacy of adding a MAPK pathway inhibitor such as Compound B to a third-generation EGFR tyrosine kinase inhibitor such as EGF816 in EGFR mutant NSCLC was assessed as follows. A panel of EGFR mutant NSCLC cell lines was treated with a fixed dose (300 nM) of
EGF816 (“Compound A”) or DMSO in combination with Compound B across a 10-dose range for 5 days.
PC9, HCC827, HCC4006, NCI-H1975 and MGH707 are all EGFR mutant NSCLC cell lines sensitive to EGF816. PC9, HCC827, HCC4006 and NCI-H1975 were obtained from the cancer cell line encyclopedia (CCLE) database. MGH707 were obtained from Massachusetts General Hospital. All cell lines were maintained in RMPI media supplemented with 10% fetal bovine serum.
Compound A (EGF816) and Compound B were all re-suspended in DMSO at a concentration of 10 mM for a stock solution and further diluted for the experiments as indicated.
The following EGFR mutant (EGFR mt) NSCLC cell lines were plated at the following densities: HCC827 (exon 19 deletion, or ex19del for short) (500/well), HCC4006 (ex19del) (500/well), PC9 (ex19del)(500/well), and MGH707 parental (1000/well) into white 384-well plates (#3707, Corning, Oneonta, N.Y., USA) and stored in an incubator overnight at 37° C., 95% relative humidity, and 5% CO2. Compounds were serial diluted (1:3 dilution) in DMSO in an acoustic plate (#P-05525, Labcyte, San Jose, Calif., USA) using a Biomek liquid handler (Beckman, Indianapolis, Ind., USA). Compound A was dispensed into the first row of a Labcyte P-05525 source plate. The compound plates were then used to deliver combinations to assay plates using an acoustic dispenser (Echo-555, Labcyte, San Jose, Calif., USA). Each dispense was 50 nL which achieved a 1:1000 dilution (ie. 50 nL dispense of a 10 mM compound becomes 10 uM in 50 uL of cell solution). The combination treatment included a second dispense of 50 nL of Compound A to achieve a final concentration of 0.3 uM. Upon completion of dosing each assay plate was returned to an incubator (37° C., 95% relative humidity, and 5% CO2). 25 uL/well of CellTiter-Glo One Solution cell viability reagent (#G8462, Promega, Madison, Wis., USA) was added to an untreated plate of each cell line using a bulk dispenser (EL406, Biotek, Winooski, Vt., USA) and after 20 minutes of incubation at room temperature, the plates were read on a microplate reader (Envision, Perkin Elmer, Hopkington, Mass., USA). […] After 5 days of incubation, the assay plates are read using the same CellTiter-Glo assay reagent and read on the Envision microplate reader.

[4] = tested on: EGFR mutant NSCLC cell lines HCC4006, HCC827, PC9, MGH707; assay: Long-term viability assay (confluence, 14 days); format: cell-based
Method: FIG. 2A and FIG. 2B: Dose response of Compound B (“Cmpd B”) in EGFR mutant NSCLC lines in combination with Compound A (EGF816) (“Cmpd A”) (300 nM) (FIG. 2A: HCC4006 and HCC827 cell lines. FIG. 2B: PC9 and MGH707 cell lines). Cells were treated with fresh drug and imaged for confluence measurement twice per week for two weeks. Cell confluence was used as a surrogate for cell number. It is shown that a Raf-inhibitor in combination with EGF816 slows drug-tolerant cell outgrowth.
Combinations of Compound A and Compound B were further examined in long-term drug combination growth assays. The same EGFR mutant NSCLC cell lines as were used in Example 1 above were treated with EGF816 alone or EGF816 in combination with Compound B across a 5-dose range for 14 days as follows.
PC9 (6000/well), HCC827 (4000/well), HCC4006 (5000/well), and MGH707 (5000/well) cells were plated into 96-well plates and the following day treated with EGF816 (300 nM) +either DMSO or a range of doses of either Compound B (0.03, 0.1, 0.3, 1 and 3 uM) for two weeks. Drug was refreshed twice per week. Cell confluence was used as a surrogate for cell number and was measured by an incucyte zoom at t=0, 4, 7, 10 and 14 days treatment.

[5] = tested on: EGFR activating and acquired resistance mutants (L858R, ex19del and T790M); settings: cited from earlier work
wild-type (WT) EGFR [6] = target: T1, wild-type (WT) EGFR; settings: cited from earlier work
[7] = tested on: advanced non-small cell lung cancer (NSCLC) harboring T790M; settings: cited from earlier work
BRAF kinase = BRAF kinase (Homo sapiens, UniProt P15056); assay: BRAF kinase inhibition; format: biochemical
Sequence of BRAF kinase (P15056 whole entry): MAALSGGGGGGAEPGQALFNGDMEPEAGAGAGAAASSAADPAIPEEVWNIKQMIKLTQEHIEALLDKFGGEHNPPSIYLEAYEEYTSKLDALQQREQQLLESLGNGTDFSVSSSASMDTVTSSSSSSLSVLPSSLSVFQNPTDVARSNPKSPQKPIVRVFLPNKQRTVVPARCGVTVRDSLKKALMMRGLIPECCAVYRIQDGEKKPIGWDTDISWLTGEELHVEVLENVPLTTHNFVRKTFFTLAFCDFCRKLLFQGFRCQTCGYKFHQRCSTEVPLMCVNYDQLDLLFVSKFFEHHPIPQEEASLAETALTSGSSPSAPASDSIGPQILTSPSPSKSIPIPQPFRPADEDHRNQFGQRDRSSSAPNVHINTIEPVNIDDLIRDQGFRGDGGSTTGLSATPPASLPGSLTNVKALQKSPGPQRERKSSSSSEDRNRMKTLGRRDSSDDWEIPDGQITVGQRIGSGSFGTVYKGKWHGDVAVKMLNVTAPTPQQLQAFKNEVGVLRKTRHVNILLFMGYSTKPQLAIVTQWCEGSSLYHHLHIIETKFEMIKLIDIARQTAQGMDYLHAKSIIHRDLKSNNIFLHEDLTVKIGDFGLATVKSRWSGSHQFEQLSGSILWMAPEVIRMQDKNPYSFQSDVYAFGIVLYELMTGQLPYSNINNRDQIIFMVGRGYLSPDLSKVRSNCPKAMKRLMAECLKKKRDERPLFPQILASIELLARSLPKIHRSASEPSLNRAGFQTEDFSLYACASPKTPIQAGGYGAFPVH

456 kinases = assay: Kinase binding selectivity panel; settings: out of 456 kinases tested
[8] = Anti-proliferative activity in cancer cell lines with MAPK-activating mutations; format: cell-based; settings: Homo sapiens; range over A-375, A-375 with BRAFi/MEKi resistance alleles, MEL-JUSO, IPC-298, Calu-6; read-out: IC50, inhibition of proliferation
[9] = tested on: cell lines that have wild-type BRAF and RAS; assay: Anti-proliferative activity in wild-type BRAF and RAS cell lines; format: cell-based; settings: Homo sapiens, read-out: IC50, inhibition of proliferation
[10] = tested on: Calu-6 (KRAS Q61K), NCI-H358 (KRAS G12C), Hey-A8 (KRAS G12D, BRAF G464E), SK-MEL-30 xenografts; assay: In vivo tumor xenografts, Compound B
CYP3A4/5 = CYP3A4/5 inhibition; format: in vitro ADME

T1 sequence (P00533 25-1210): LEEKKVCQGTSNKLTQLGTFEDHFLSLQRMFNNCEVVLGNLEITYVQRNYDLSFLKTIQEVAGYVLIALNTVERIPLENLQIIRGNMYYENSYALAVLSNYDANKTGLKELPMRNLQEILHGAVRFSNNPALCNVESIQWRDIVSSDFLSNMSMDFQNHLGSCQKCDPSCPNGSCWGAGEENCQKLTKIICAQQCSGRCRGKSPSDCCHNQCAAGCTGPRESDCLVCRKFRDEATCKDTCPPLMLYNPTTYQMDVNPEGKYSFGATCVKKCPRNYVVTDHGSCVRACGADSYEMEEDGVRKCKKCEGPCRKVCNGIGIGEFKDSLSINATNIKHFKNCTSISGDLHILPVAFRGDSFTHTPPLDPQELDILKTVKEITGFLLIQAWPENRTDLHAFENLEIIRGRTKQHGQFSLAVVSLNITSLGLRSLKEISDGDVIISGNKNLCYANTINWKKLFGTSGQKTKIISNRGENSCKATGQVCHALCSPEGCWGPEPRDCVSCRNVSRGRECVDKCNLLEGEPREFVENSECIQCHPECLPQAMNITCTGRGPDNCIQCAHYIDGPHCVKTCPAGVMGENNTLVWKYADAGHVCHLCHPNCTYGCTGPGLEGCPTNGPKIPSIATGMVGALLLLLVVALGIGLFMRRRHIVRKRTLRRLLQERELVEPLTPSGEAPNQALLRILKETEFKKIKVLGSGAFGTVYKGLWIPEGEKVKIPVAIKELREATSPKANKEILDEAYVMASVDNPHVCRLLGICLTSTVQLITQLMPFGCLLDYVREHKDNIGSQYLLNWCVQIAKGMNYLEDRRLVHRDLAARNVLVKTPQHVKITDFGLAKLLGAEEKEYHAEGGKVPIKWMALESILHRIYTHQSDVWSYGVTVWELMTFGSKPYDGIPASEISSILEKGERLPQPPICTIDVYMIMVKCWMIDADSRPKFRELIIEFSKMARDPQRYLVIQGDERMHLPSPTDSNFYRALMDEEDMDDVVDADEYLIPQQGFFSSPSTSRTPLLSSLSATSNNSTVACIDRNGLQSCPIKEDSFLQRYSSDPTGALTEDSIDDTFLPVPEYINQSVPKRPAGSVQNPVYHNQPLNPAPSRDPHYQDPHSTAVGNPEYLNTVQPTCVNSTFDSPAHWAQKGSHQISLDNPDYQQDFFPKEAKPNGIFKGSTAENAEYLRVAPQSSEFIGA

SMILES: Cc1cc(C(=O)Nc2nc3cccc(Cl)c3n2[C@@H]2CCCCN(C(=O)/C=C/CN(C)C)C2)ccn1 [Compound A, (R,E)-N-(7-chloro-1-(1-(4-(dimethylamino)but-2-enoyl)azepan-3-yl)-1H-benzo[d]imidazol-2-yl)-2-methylisonicotinamide]
WT EGFR inhibition (wild-type (WT) EGFR [1]): no indication of WT EGFR inhibition
efficacy in EGFR mutant cancer models [2]: significant efficacy
tolerability / body weight (xenograft models; at efficacious doses): well tolerated with no body weight loss
anti-tumor efficacy (xenograft models; several xenograft models): Dose-dependent anti-tumor efficacy
overall response rates (EGFR-mutant NSCLC): similar
rates of rash and diarrhoea (EGFR-mutant NSCLC): lower rates of rash and diarrhoea
cell growth (% Activity, cell-titer glo) ([3]; EGF816 alone 300 nM, 5 days, all cell lines): robust growth suppression
sensitivity to single agent EGF816 ([4]; 300 nM EGF816 alone, PC9): more exquisitely sensitive
inhibition of EGFR mutants [5]: selectively inhibits
effect on wild-type EGFR (wild-type (WT) EGFR [6]): sparing
antitumor activity in patients [7]: durable antitumor activity

IC50 (BRAF kinase): 0.73 nM
number of other kinases whose binding is inhibited to a similar degree (456 kinases): 2
IC50 [8]: 200 to 1200 nM
CYP3A4/5 inhibition (CYP3A4/5): inhibitor of CYP3A4/5
SMILES: Cc1ccc(NC(=O)c2ccnc(C(F)(F)F)c2)cc1-c1cc(OCCO)nc(N2CCOCC2)c1 [Compound B, N-(3-(2-(2-hydroxyethoxy)-6-morpholinopyridin-4-yl)-4-methylphenyl)-2-(trifluoromethyl)isonicotinamide]
IC50 [9]: > 20000 nM
tumor response ([10]; KRAS-mutant Calu-6, NCI-H358, Hey-A8 and NRAS-mutant SK-MEL-30 xenografts): tumor regression
dose dependence of anti-tumor effects ([10]; in all cases): dose-dependent
tolerability / body weight ([10]; in all cases): well tolerated with minimal body weight loss
cell growth (% Activity, cell-titer glo) ([3]; Compound B added to 300 nM EGF816, 5 days, HCC4006, HCC827 and PC9): enhanced suppression of cell growth
cell growth (% Activity, cell-titer glo) ([3]; Compound B added to 300 nM EGF816, 5 days, MGH707): less effective
cell growth (% Activity, cell-titer glo) ([3]; Compound B single agent (DMSO), 5 days, all cell lines): suppressed
sensitization to Compound B by EGF816 ([3]; with 300 nM EGF816 compared to single agent, HCC4006, HCC827 and PC9): active at lower doses
residual outgrowth of EGFR mutant persister cells (cell confluence) ([4]; Compound B 0.03-3 uM with 300 nM EGF816, 14 days): markedly suppressed
response to the combination (cell confluence) ([4]; Compound B with 300 nM EGF816, 14 days, MGH707): most refractory
cell number (cell confluence) ([4]; Compound B with 300 nM EGF816, 14 days, PC9): more pronounced drop in cell number
